The values that follow come from ChEMBL document CHEMBL4052601, “Glycybridins A-K, Bioactive Phenolic Compounds from Glycyrrhiza glabra” (J Nat Prod, 2017).

In series [1] the test system is HepG2. Description: Antiproliferative activity against human HepG2 cells at 10 uM after 24 hrs by MTS assay relative to control. In kind it is functional. The note with it: HepG2, 24 h.
The subject of series [2] is A549. Nature of the series: Antiproliferative activity against human A549 cells at 10 uM after 24 hrs by MTS assay relative to control. Conditions: A549, 24 h. Format: functional. On the technique in general: Tetrazolium assays rely on reduction of a dye to a coloured formazan, in cell work by metabolically active cells.
In series [3] the target is T1, Tyrosinase (Homo sapiens) (UniProt P14679).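 Also: tyrosinase of unspecified origin acting on L-tyrosine, compound preincubated with enzyme for 15 min before adding substrate, inhibition expressed versus control.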
T1 sequence (whole entry): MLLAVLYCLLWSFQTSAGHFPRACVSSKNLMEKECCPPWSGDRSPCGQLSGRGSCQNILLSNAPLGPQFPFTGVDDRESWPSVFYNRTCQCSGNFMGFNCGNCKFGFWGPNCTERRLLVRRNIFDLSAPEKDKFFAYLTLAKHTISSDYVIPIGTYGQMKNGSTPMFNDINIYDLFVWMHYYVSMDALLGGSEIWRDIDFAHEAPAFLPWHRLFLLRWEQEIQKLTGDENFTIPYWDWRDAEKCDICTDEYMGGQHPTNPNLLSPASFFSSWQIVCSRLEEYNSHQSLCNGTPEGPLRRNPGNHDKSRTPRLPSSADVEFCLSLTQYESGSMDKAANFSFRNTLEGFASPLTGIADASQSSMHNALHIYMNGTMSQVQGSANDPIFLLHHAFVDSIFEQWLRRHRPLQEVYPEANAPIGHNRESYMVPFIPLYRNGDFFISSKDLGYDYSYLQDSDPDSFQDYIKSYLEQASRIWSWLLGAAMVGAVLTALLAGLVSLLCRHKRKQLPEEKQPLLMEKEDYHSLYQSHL
The note with it: at 10 µM.
Description: Inhibition of tyrosinase (unknown origin) using L-tyrosine as substrate at 10 uM preincubated for 15 mins followed by substrate addition relative to control

Series [4] has as its system RAW264.7. Description: Antiinflammatory activity against mouse RAW264.7 cells assessed as inhibition of LPS induced nitric oxide production at 20 uM […] followed by LPS challenge […] relative to control. Format: functional.
The subject of a further series is Homo sapiens. Description: Inhibition of LPS-induced NF-kappaB (unknown origin) transactivation expressed in human SW480 cells at 10 uM administered 1 hr after LPS stimulation measured after 6 hrs by luciferase reporter gene assay relative to control. In kind it is cell-based. A general note: Reporter assays use an easily measured gene product as a stand-in for the process of interest.

The test system of series [5] is MCF7. Nature of the series: Antiproliferative activity against human MCF7 cells at 10 uM after 24 hrs by MTS assay relative to control. In kind it is functional. Conditions: MCF7, 24 h.
Series [6] deals with SW480. Nature of the series: Antiproliferative activity against human SW480 cells at 10 uM after 24 hrs by MTS assay relative to control. Format: functional. The note with it: SW480, 24 h.
Series [7] has as its system RAW264.7. Nature of the series: Antiinflammatory activity against mouse RAW264.7 cells assessed as inhibition of LPS-induced nitric oxide production at 10 uM after 24 hrs by Griess assay relative to control. Format: functional. Conditions: RAW264.7, 24 h. A general note: Nitrite, measured by Griess reagent, commonly stands in for NO production.
For series [8], the target named is T2, Nuclear factor erythroid 2-related factor 2 (Homo sapiens) (UniProt Q16236).
T2 sequence (whole entry): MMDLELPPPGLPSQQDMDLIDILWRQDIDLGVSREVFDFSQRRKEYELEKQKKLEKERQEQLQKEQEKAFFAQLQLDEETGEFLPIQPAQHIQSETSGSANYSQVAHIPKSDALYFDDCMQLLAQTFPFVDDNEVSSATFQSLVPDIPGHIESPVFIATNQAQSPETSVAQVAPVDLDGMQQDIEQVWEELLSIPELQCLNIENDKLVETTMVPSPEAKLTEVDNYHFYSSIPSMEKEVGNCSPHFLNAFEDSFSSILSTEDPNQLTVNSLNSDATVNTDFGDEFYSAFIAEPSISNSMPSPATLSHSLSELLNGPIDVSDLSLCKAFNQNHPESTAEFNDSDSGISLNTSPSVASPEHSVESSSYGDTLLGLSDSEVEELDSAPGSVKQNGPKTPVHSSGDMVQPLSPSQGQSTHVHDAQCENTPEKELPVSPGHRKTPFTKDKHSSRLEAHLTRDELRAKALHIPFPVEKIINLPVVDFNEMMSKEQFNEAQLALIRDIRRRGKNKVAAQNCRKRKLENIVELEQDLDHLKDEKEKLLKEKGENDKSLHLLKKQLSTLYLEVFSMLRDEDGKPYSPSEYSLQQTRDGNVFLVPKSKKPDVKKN
Nature of the series: Activation of Nrf2 (unknown origin) expressed in human HepG2 cells after 6 hrs by ARE-driven luciferase reporter gene assay relative to control. In kind it is cell-based.

For series [9], the target named is T3, Tyrosine-protein phosphatase non-receptor type 1 (Homo sapiens) (UniProt P18031).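 Also: recombinant enzyme assay with pNPP substrate, inhibition read after 30 min versus untreated control.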
T3 sequence (whole entry): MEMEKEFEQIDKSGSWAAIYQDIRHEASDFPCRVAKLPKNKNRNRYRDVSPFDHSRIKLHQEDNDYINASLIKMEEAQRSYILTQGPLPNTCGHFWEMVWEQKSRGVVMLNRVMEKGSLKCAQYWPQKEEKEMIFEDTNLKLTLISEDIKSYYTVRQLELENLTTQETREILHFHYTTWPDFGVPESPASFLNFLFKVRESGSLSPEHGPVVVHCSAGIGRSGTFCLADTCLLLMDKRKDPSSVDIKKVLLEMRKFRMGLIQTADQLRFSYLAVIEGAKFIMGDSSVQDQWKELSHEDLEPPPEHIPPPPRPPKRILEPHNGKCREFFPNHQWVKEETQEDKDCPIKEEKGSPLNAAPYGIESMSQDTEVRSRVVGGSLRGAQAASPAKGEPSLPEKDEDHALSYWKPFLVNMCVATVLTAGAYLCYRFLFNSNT
Conditions: at 10 µM.
Description: Inhibition of recombinant human PTP1B using pNPP as substrate at 10 uM after 30 mins relative to control

Series [10] concerns A549. Nature of the series: Induction of apoptosis in human A549 cells after 8 hrs by Annexin V-FITC/propidium iodide staining-based flow cytometric analysis. Format: functional, cell-based.
Series [11] concerns A549. Description: Antitumor activity against human A549 cells xenografted in BALB/c nude mouse assessed as reduction in tumor mass at 10 mg/kg, ip administered as daily dose for 16 days relative to control. The note with it: 384 h. Format: functional.
The test system of series [12] is HepG2. Nature of the series: Antiproliferative activity against human HepG2 cells after 24 hrs by MTS assay. Format: functional, cell-based. Conditions: HepG2, 24 h.
The test system of series [13] is A549. Description: Induction of apoptosis in human A549 cells assessed as late apoptotic cells at 10 uM after 8 hrs by Annexin V-FITC/propidium iodide staining-based flow cytometric analysis (reference value: 12.02%). Format: functional.
For series [14], the system named is A549. Description: Induction of apoptosis in human A549 cells assessed as early apoptotic cells at 20 uM after 8 hrs by Annexin V-FITC/propidium iodide staining-based flow cytometric analysis (reference value: 1.64%). Format: functional.
Series [15] has as its system SW480. Description: Antiproliferative activity against human SW480 cells after 24 hrs by MTS assay. Format: functional, cell-based. Conditions: SW480, 24 h.
The subject of series [16] is Mus musculus. Description: Toxicity in BALB/c nude mouse xenografted with human A549 cells assessed as change in body weight at 10 mg/kg, ip administered as daily dose for 16 days relative to control. Format: organism-based. The note with it: in vivo, 384 h.
Series [17] relates to Mus musculus. Nature of the series: Toxicity in BALB/c nude mouse xenografted with human A549 cells at 10 mg/kg, ip administered as daily dose for 16 days relative to control. Conditions: in vivo, 384 h. In kind it is organism-based.
The subject of series [18] is A549. Description: Antitumor activity against human A549 cells xenografted in BALB/c nude mouse assessed as reduction in tumor volume at 10 mg/kg, ip administered as daily dose for 16 days relative to control. Conditions: 384 h. Format: functional.
The test system of series [19] is A549. Nature of the series: Induction of apoptosis in human A549 cells assessed as late apoptotic cells at 20 uM after 8 hrs by Annexin V-FITC/propidium iodide staining-based flow cytometric analysis (reference value: 12.02%). In kind it is functional.
For series [20], the system named is A549. Description: Induction of apoptosis in human A549 cells assessed as early apoptotic cells at 5 uM after 8 hrs by Annexin V-FITC/propidium iodide staining-based flow cytometric analysis (reference value: 1.64%). In kind it is functional.
Series [21] concerns A549. Nature of the series: Antiproliferative activity against human A549 cells after 24 hrs by MTS assay. In kind it is functional, cell-based.
For series [22], the system named is A549. Nature of the series: Induction of apoptosis in human A549 cells assessed as late apoptotic cells at 5 uM after 8 hrs by Annexin V-FITC/propidium iodide staining-based flow cytometric analysis (reference value: 12.02%). Format: functional.
Series [23] has as its system A549. Description: Induction of apoptosis in human A549 cells assessed as late apoptotic cells at 2.5 uM after 8 hrs by Annexin V-FITC/propidium iodide staining-based flow cytometric analysis (reference value: 12.02%). Format: functional.
The test system of series [24] is MCF7. Nature of the series: Antiproliferative activity against human MCF7 cells after 24 hrs by MTS assay. In kind it is functional, cell-based. The note with it: MCF7, 24 h.
Series [25] deals with A549. Description: Induction of apoptosis in human A549 cells assessed as early apoptotic cells at 10 uM after 8 hrs by Annexin V-FITC/propidium iodide staining-based flow cytometric analysis (reference value: 1.64%). In kind it is functional.
For series [26], the system named is A549. Nature of the series: Induction of apoptosis in human A549 cells assessed as early apoptotic cells at 2.5 uM after 8 hrs by Annexin V-FITC/propidium iodide staining-based flow cytometric analysis (reference value: 1.64%). In kind it is functional.

As usually defined, the inhibition is the share of the control response that was lost under treatment. Broadly, the inhibition in vivo is the change of the read-out against control, counted positive when it falls. What is called IC50 is the concentration that gives 50% inhibition. Read a high IC50 as weaker potency.

`C=CC(C)(C)c1cc(/C=C/C(=O)c2ccc(O)cc2)c(OC)cc1O` [LICOAGROCHACONE A]: the inhibition at 10 µM in the series with HepG2 [1] was found to be 57.9%; with A549 [2], 17.8%; with MCF7 [5], 55.9%; in the series with SW480 [6], 13.6%; in the series on RAW264.7 [7], 14.2%. Also, the inhibition was determined as 10.6% in [3], 57.2% with Homo sapiens and 14.5% in series [9]. Moreover, the “fold change (FC)” value with RAW264.7 [4] is given as 0.8. Further, the Activity entry in series [8] is “Dose-dependent effect”.

Turning to `CC(C)=CCc1cc2c(cc1O)OCC(c1ccc(O)c3c1OC(C)(C)C=C3)=C2`, the Activity entry was “Dose-dependent effect” with A549 [10]; 32.67% with A549 [13]; 22.81% with A549 [14]; “Non-Toxic” with Mus musculus [16]; “Non-Toxic” with Mus musculus [17]; 72.21% in the series on A549 [19]. Also, the Activity with A549 [20] is 2.42%; in the series with A549 [21], “Dose-dependent effect”; in the series with A549 [22], 17.07%; with A549 [23] it was 14.08%; in the series with A549 [25] it was 16.04%; in the series with A549 [26], 3.03%. In addition, the inhibition at 10 µM in the series with HepG2 [1] is 93.6%; with A549 [2], 87.7%; with MCF7 [5], 90.7%; in the series with SW480 [6] it was 94.6%; in the series on RAW264.7 [7], 36%. Besides, the values for the inhibition in vivo at 10 mg/kg in the series on A549 [11] and in the series with A549 [18] were 39.7% and 38.9%, respectively. For the same molecule, the IC50 is 4.6 to 6.6 µM in the series with HepG2 [12]; 4.6 to 6.6 µM in the series with SW480 [15]; 4.6 µM in the series on A549 [21] (A549, 24 h); 4.6 to 6.6 µM with MCF7 [24]. Besides, the inhibition was 3.8% in series [3], 41.6% in the series on Homo sapiens and 80.4% in series [9].
